Literature values, collected in patent US10694749B2, “Insecticide formulation” (Wellmark International, priority 2016, dated 2020).

System: Mosquito Larvae
Settings: after ingestion

Bacillus thuringiensis israelensis [BTI]
time to death of the first larvae after ingesting the bacteria: 15 to 20 min
